Test results taken from patent US20220347096A1, “LIPOSOMAL CANNABINOIDS AND USES THEREOF” (YISSUM RESEARCH DEVELOPMENT COMPANY OF THE HEBREW …, priority 2019, published 2022).

Assay: Plasma CBD profile and PK after IV administration
Type: in vivo
Conditions: mice; for Plasma CBD, Mean ± SD: 12 mg/kg
Method: CBD was extracted from plasma samples that were spiked with cannabigerol (CBG, 1 mg/ml in methanol, Sigma, Cat. C-141-1) used as internal standard (IS) followed by dilution of the plasma five-fold in acetonitrile. After vigorous vortex it was centrifuged, and the upper phase was analyzed. Final IS concentration in the samples was 100 ng/ml.
Plasma extracts were analyzed by LCMS method. Specifically, LC-MS/MS analyses were conducted on a Sciex (Framingham, Mass., USA) Triple Quad™ 5500 mass spectrometer coupled with a Shimadzu (Kyoto, Japan) UHPLC System. The concentrations were calculated based on a calibration curve of CBD in plasma at a range of 1-1,000 ng/ml having 100 ng/ml of IS.
IV formulation: The formulation used for IV administration was 10 mg/g CBD formulation solubilized in Cremophor:Ethanol 50:50 solution. This formulation was diluted 10-fold with saline prior to injection to result in 1 mg/ml post dilution concentration. The diluted formulation was used within 1 h after preparation. […]
At the time-points detailed below, 3 mice were euthanized with CO2 and terminal blood was immediately collected from the retro-orbital sinus in labeled 0.5 ml K3EDTA blood collection tubes (Mini Collect, Greiner-bio-one, Austria). The blood was centrifuged at 2000×g for 10 minutes before plasma was extracted, collected in labeled tubes and frozen at −20° C. immediately after collection. The samples were then stored at −80° C. pending analysis. […]

[1] = female, BALB/C, mouse, in vivo, IV 12 mg/kg

With `C=C(C)[C@@H]1CCC(C)=C[C@H]1c1c(O)cc(CCCCC)cc1O` [CBD, 2-[(1R,6R)-6-Isopropenyl-3-methylcyclohex-2-en-1-yl]-5-pentylbenzene-1,3-diol] the AUC(0-inf) [1] was 5020 ng·h/mL, the C0 [1] was 9460 ng/mL and the Cmax [1] was 8860 ng/mL. For the same compound, the Tmax [1] was 4.98 min, the clearance [1] was 39.8 mL/min/kg and the half-life [1] was 101 min. The concentration at 5 min (female, BALB/C, mouse, in vivo, IV 12 mg/kg in Cremophor:Ethanol diluted with saline, 5 min, read-out: Plasma CBD, Mean ± SD) was 8860 ng/mL, the concentration at 1 h (female, BALB/C, mouse, in vivo, IV 12 mg/kg, 1 h, read-out: Plasma CBD, Mean ± SD) was 177 ± 40 ng/mL and the concentration at 4 h (female, BALB/C, mouse, in vivo, IV 12 mg/kg, 4 h, read-out: Plasma CBD, Mean ± SD) was 35 ± 11 ng/mL. It also gave a concentration at 8 h (female, BALB/C, mouse, in vivo, IV 12 mg/kg, 8 h, read-out: Plasma CBD, Mean ± SD) of 9.5 ng/mL, an AUC (female, BALB/C, mouse, in vivo, IV 12 mg/kg, read-out: AUC0—Tlast) of 5000 ng·h/mL and a Vd (female, BALB/C, mouse, in vivo, IV 12 mg/kg, read-out: Vz) of 5.79 L/kg. The “AUC0—Tlast/Dose” value (IV 12 mg/kg) was 417 (hr*ng/mL)/(mg/kg), the Cmax/Dose (IV 12 mg/kg) was 738 (ng/mL)/(mg/kg) and the “Plasma CBD, Mean ± SD” value (IV 12 mg/kg in Cremophor:Ethanol diluted with saline, 5 min) was 8,856 ± 1,451 ng/ml. For the same compound, the “Mean plasma CBD concentration normalized to dose (±SD)” value (IV 12 mg/kg, 5 min) was 757 ± 124 ng/mL/mg/kg, the “Mean plasma CBD concentration normalized to dose (±SD)” value (IV 12 mg/kg, 1 h) was 15 ± 3.46 ng/mL/mg/kg and the “Mean plasma CBD concentration normalized to dose (±SD)” value (IV 12 mg/kg, 4 h) was 2.99 ± 0.90 ng/mL/mg/kg. For the same compound, the “Mean plasma CBD concentration normalized to dose (±SD)” value (IV 12 mg/kg, 8 h) was 0.81 ± 0.31 ng/mL/mg/kg, the “Plasma CBD, Mean ± SD” value (IV 12 mg/kg, 8 h) was 9.50 ± 3.67 ng/mL and the “Mean plasma CBD concentration normalized to dose (±SD)” value (IV 12 mg/kg, 24 h) was “BLOD”. For the same compound, the “Plasma CBD, Mean ± SD” value (IV 12 mg/kg, 24 h) was “below the limit of detection and BLOD”, the “Mean plasma CBD concentration normalized to dose (±SD)” value (IV 12 mg/kg, 48 h) was “BLOD” and the “Plasma CBD, Mean ± SD” value (IV 12 mg/kg, 48 h) was “below the limit of detection and BLOD”.
